Reference: patent US12331024B2, “Substituted naphthyl P38alpha mitogen-activated protein kinase inhibitors” (GEN1E LIFESCIENCES INC., priority 2021, dated 2025)

Columns and labels:
Assay type in all cases: in vivo
[1] = Pharmacokinetics, mouse study: plasma AUCinf of metabolites after dosing Compound (4); conditions: female CD-1 mice, single intraperitoneal dose of 1 mg/mouse of Compound (4), metabolite AUCinf relative to Compound (4)
Protocol: (§1) The pharmacokinetics of Compounds (1)-(4) was determined in mice, rats, and monkeys.
Female CD-1 mice (n=9) received a single intraperitoneal dose of 1 mg/mouse of Compound (4). The dosing formulation was prepared prior to dose, with 2 mg/mL of Compound (4) in 4% DMSO and 96% PBS. Blood samples were collected from the mice at designated timepoints. Following collection, samples were centrifuged (2500 rpm for 10 minutes at 4° C.) and the resulting plasma was recovered and stored frozen (−60° C.).
(§2) Bioanalysis of the plasma samples was performed for Compounds (1)-(4). Mouse plasma samples were extracted by protein precipitation and analyzed by UPLC-MSMS using a Waters UPLC and API 5000® triple quadrupole mass spectrometer (AB Sciex, Toronto, Canada) with a Waters Acquity® UPLC BEH C18 column (50 mm×2.1 mm, 1.7 μm particle size). Acquisition and chromatographic peak integration were performed using Analyst® 1.7 Software. The standard curve regression and quantification of analytes in the samples was performed using the Analyst® Software.
(§3) Pharmacokinetic parameters were calculated based on the plasma concentration data for Compound (4) and the metabolites Compound (1)-(3) by non-compartmental methods using WinNonlin® Software, version 8.1 (Certara®, Inc). The area under the concentration time curve (AUCinf) was calculated for Compounds (1)-(4). The percent AUCinf (% AUCinf) for each metabolite was calculated as the ratio of the AUCinf for each respective metabolite divided by the AUCinf for Compound (4).

[2] = Pharmacokinetics, rat study: plasma AUCinf of metabolites after dosing Compound (4); conditions: male Sprague-Dawley rats, single intravenous bolus dose of 10 mg/kg Compound (4), metabolite AUCinf relative to Compound (4)
Protocol: as §1
Male Sprague-Dawley rats (n=3) received a single intravenous bolus dose of 10 mg/kg Compound (4). The dosing formulation was prepared by prior to dosing, with 5 mg/mL of Compound (4) in 14% sulphobutylether-β-cyclodextrin (SBECD) in deionized water (w/v). Blood samples were collected from each rat at designated timepoints. Following collection, the samples were centrifuged (2500 rpm for 10 minutes at approximately 4° C.) and the resulting plasma was recovered and stored frozen (−60° C.).
as §2, with “the” for “the plasma”, “Rat” for “Mouse”
as §3, with “calculated from” for “calculated based on”, “metabolites Compounds” for “metabolites Compound”, “AUCinf” for “AUCinf (% AUCinf)”, “for the metabolites” for “for each metabolite”

[3] = Pharmacokinetics, monkey study: plasma AUCinf of metabolites after dosing Compound (4); conditions: male cynomolgus monkeys, single 2 hour intravenous infusion of 5 mg/kg Compound (4), metabolite AUCinf relative to Compound (4)
Protocol: as §1
Male cynomolgus monkeys (n=3) received a single intravenous infusion over a period of 2 hours at a dose of 5 mg/kg Compound (4) (2.5 mL/kg/hour). The dosing formulation was prepared prior to dose, with 1 mg/mL of Compound (4) in 14% sulphobutylether-β-cyclodextrin (SBECD) in deionized water (w/v). Blood samples were collected from each monkey at designated timepoints. Following collection, the samples were centrifuged (2500 rpm for 10 minutes at 4° C.) and the resulting plasma was recovered and stored frozen (−60° C.).
Bioanalysis of samples was performed for Compounds (1)-(4). The monkey plasma samples were extracted by protein precipitation and analyzed by UPLC-MSMS using a Waters UPLC and API 5000® triple quadrupole mass spectrometer (AB Sciex, Toronto, Canada) with an ACE® Excel® 2 C18 column (50 mm×3.0 mm, 2 μm particle size) or a Waters Acquity® UPLC BEH C18 column (50 mm×2.1 mm, 1.7 μm). Acquisition and chromatographic peak integration were performed using Analyst® Software, version 1.6.3. The standard curve regression and quantification of analytes in the samples was performed using Watson LIMS® Software, version 7.4.1 (Thermo Fisher Scientific, Philadelphia, USA) or the Analyst® Software.
as §3, with “calculated from” for “calculated based on the”, “and its” for “and the”, “metabolites” for “metabolites Compound (1)-(3)”, “AUCinf” for “AUCinf (% AUCinf)”, “each of the metabolites” for “each metabolite”, “AUCinf of” for “AUCinf for”

Compound	% AUCinf (100×AUCmetabolite/AUCCompound(4)) [1]	% AUCinf (100×AUCmetabolite/AUCCompound(4)) [2]	% AUCinf (100×AUCmetabolite/AUCCompound(4)) [3]
CNc1cccc2c(S(=O)(=O)Nc3ccc(CN4CCOCC4)cc3)cccc12 [Compound (1), 5-(methylamino)-N-(4-(morpholinomethyl)phenyl)naphthalene-1-sulfonamide]	31%	9%	64%
CNc1cccc2c(S(=O)(=O)Nc3ccc(CN4CCOCC4=O)cc3)cccc12 [Compound (2), 5-(methylamino)-N-(4-((3-oxomorpholino)methyl)phenyl)naphthalene-1-sulfonamide]	10%	48%	132%
CN(C)c1cccc2c(S(=O)(=O)Nc3ccc(CN4CCOCC4=O)cc3)cccc12 [Compound (3), 5-(dimethylamino)-N-(4-((3-oxomorpholino)methyl)phenyl)naphthalene-1-sulfonamide]	9%	11%	7%
